According to PMC2766259 (Synapse (New York, N.Y.), 2009):
Like-named read-outs stand apart in the source and are kept apart here.

What was measured:
α4β2* nAChRs [1] = settings: pigs, CI; ref Brust et al., 2008; cited from earlier work
α4β2* nAChRs [2] = settings: cited from earlier work
α4β2* nAChRs [3] = settings: in rats; ref Saji et al., 2002; cited from earlier work
[4] = Safety and tolerability monitoring after intravenous 5-[^123I]IA; assay type: in vivo, Humans (Homo sapiens)
α4β2* nAChRs [5] = settings: cited from earlier work; remark: listed apart in the source
α4β2* nAChRs [6] = settings: cited from earlier work; remark: listed apart in the source
α4β2* nAChRs [7] = settings: in rats; ref Saji et al., 2002; cited from earlier work; remark: listed apart in the source
α4β2* nAChRs [8] = settings: ref Saji et al., 2002; cited from earlier work
[9] = target: high-affinity α4β2* neuronal nicotinic acetylcholine receptors (nAChRs) (Homo sapiens, UniProt P17787+P43681); test: 5-[^123I]IA SPECT of the living human brain, VOI kinetic analysis; assay type: in vivo, Humans (Homo sapiens)
high-affinity α4β2* neuronal nicotinic acetylcholine receptors (nAChRs), sequence (P43681 29-627 limits assumed): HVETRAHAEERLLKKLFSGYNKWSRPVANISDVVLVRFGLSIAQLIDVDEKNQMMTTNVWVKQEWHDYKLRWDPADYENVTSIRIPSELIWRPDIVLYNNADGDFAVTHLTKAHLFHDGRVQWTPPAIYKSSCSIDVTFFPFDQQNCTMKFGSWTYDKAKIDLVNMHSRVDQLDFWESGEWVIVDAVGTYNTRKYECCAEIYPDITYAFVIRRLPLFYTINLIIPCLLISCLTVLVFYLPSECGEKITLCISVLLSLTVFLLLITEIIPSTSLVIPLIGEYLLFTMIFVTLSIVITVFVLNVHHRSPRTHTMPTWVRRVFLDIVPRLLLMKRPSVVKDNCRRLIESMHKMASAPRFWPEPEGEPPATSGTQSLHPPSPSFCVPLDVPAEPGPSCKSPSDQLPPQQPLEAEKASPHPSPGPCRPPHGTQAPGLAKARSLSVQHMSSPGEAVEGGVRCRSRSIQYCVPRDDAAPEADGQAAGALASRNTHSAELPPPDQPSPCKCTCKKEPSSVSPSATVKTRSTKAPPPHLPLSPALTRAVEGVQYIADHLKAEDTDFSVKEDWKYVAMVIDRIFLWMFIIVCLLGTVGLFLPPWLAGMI
high-affinity α4β2* neuronal nicotinic acetylcholine receptors (nAChRs), sequence (P17787 26-502): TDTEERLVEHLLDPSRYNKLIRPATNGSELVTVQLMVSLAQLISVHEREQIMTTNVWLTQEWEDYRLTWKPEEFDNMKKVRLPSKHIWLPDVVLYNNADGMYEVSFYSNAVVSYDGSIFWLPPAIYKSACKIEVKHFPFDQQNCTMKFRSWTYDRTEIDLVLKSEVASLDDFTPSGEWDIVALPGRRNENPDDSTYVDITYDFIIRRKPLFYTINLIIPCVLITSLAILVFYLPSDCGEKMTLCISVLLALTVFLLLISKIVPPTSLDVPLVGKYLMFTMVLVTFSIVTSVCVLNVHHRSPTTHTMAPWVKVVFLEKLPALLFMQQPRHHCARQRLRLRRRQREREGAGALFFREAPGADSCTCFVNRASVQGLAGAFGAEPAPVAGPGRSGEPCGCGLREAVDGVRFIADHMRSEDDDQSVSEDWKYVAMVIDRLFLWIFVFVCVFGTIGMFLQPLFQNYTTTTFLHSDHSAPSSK

[10] = as above; assay type: in vivo, Humans (Homo sapiens); settings: human, intravenous
[11] = Plasma metabolite analysis by column-switch HPLC after intravenous 5-[^123I]IA; assay type: in vivo, Humans (Homo sapiens); settings: drawn simultaneously 30 minutes or later after administration
α4β2* nAChRs [12] = settings: acute treatment, baboon, ref Kassiou et al., 2001, cited from earlier work
α4β2* nAChRs [13] = settings: human smokers, 2-[^18F]FA; ref Brody et al., 2006; cited from earlier work

[18F]c1ccc([C@@H]2C[C@H]3CCC[C@@H]2N3)cn1 [(−)-[^18F]NCFHEB, [^18F]norchloro-fluoro-homoepibatidine]
Conclusion: attainment of equilibrium (α4β2* nAChRs [1]): • (−)-[^18F]NCFHEB attains equilibrium before 2-[^18F]FA

[11CH3]N1CCC[C@H]1c1cccnc1 [[^11C](S)-(−)-nicotine, reference compound]
non-specific binding (α4β2* nAChRs [2]; human nAChR imaging, ref Scheffel et al., 2000, Villemagne et al., 1998): high degree of non-specific binding

[123I]c1cncc(OC[C@@H]2CCN2)c1 [5-[^123I]IA, (S)-5-[^123I]iodo-3-(2-azetidinylmethoxy)pyridine]
regional brain uptake (α4β2* nAChRs [3]): high uptake in the thalamus, moderate uptake in the cortex, and low uptake in the cerebellum
vital signs and electrocardiograms ([4]; before administration and subsequent 24 hours): normal
abnormalities of behavior or movement (AIMS, BPRS) ([4]; before or after administration): no abnormalities of behavior or movement
Electrocardiogram, blood pressure, and pulse ([4]; during each study, twelve healthy adults): did not change
Conclusion: safety and efficacy ([4]; humans, smokers, nonsmokers, secondhand smoke exposure, current study): • 5-[^123I]IA is safe, efficacious in humans (smokers, nonsmokers, people with secondhand smoke exposure
Conclusion: regional uptake (α4β2* nAChRs [5]; baboon, ref Baldwin et al., 2006): • Uptake high in thalamus, moderate in cortex and basal ganglia, low in cerebellum. SPECT brain radioactivity represents5-[^123I]IA distribution
Conclusion: safety and efficacy (α4β2* nAChRs [5]; ref Fujita et al., 2000): 5-[^123I]IA is safe, efficacious in baboons.
Conclusion: safety and efficacy (α4β2* nAChRs [6]; ref Chefer et al., 1998): 5-[^123 I]IA is safe and efficacious for brain imaging in monkeys.
binding affinity relative to (−)-nicotine (α4β2* nAChRs [7]): seven times greater
binding affinity relative to A-85380 (α4β2* nAChRs [7]): comparable to A-85380
Conclusion: metabolism and plasma protein binding by sex (α4β2* nAChRs [2]; 29 nonsmokers, ref Cosgrove et al., 2007): greater in women than in men
Conclusion: safety and efficacy (α4β2* nAChRs [2]; ref Fujita et al., 2002): • 5-[^123I]IA is safe, efficacious in humans.
Conclusion: safety and efficacy (α4β2* nAChRs [2]; ref Ishizu et al., 2004): • 5-[^123I]IA is safe, efficacious in humans.
Conclusion: safety and efficacy (α4β2* nAChRs [2]; ref Mamede et al., 2004): • 5-[^123I]IA is safe, efficacious in humans.
Conclusion: safety and efficacy (α4β2* nAChRs [2]; ref Staley et al., 2005): • 5-[^123I]IA is safe, efficacious in humans.
Conclusion: safety and efficacy (α4β2* nAChRs [2]; ref Ueda et al., 2004): • 5-[^123I]IA is safe, efficacious in humans.
Conclusion: safety and efficacy (α4β2* nAChRs [8]): • 5-[^123I]IA is safe, efficacious in a marmoset.
time of maximal cerebellar uptake ([9]; after injection): 40 min
time of peak thalamic uptake ([9]; after injection): approximately 140 minutes
brain uptake ([9]; living human brain): good brain uptake
reversibility of binding ([9]; time activity curves): reversible binding with substantial dissociation by 6 h
Kp ([10]; brain (cortex), 8.1 mCi, Distribution volume (DV), Cortex, subject 1, bolus): 12.8
Kp ([10]; brain (cortex), 8.8 mCi, Distribution volume (DV), Cortex, subject 4, bolus): 7.62
Kp ([10]; brain (cortex), 9.3 mCi, Distribution volume (DV), Cortex, subject 3, bolus): 13
Kp ([10]; brain (frontal lobe), 8.1 mCi, Distribution volume (DV), Frontal lobe, subject 1, bolus): 9.6
Kp ([10]; brain (frontal lobe), 8.8 mCi, Distribution volume (DV), Frontal lobe, subject 4, bolus): 5.46
Kp ([10]; brain (frontal lobe), 9.3 mCi, Distribution volume (DV), Frontal lobe, subject 3, bolus): 8.56
Kp ([10]; brain (fusiform gyrus), 8.1 mCi, Distribution volume (DV), Fusiform gyrus, subject 1, bolus): 9.34
Kp ([10]; brain (fusiform gyrus), 8.8 mCi, Distribution volume (DV), Fusiform gyrus, subject 4, bolus): 5.68
Kp ([10]; brain (fusiform gyrus), 9.3 mCi, Distribution volume (DV), Fusiform gyrus, subject 3, bolus): 9.58
Kp ([10]; brain (hippocampus), 8.1 mCi, Distribution volume (DV), Hippocampus, subject 1, bolus): 13.5
Kp ([10]; caudate head, Median DV of high plasma nicotine group, Caudate head, six volunteers): 13.7
Kp ([10]; caudate head, Median DV of low plasma nicotine group, Caudate head, six volunteers): 21.9
Kp ([10]; cerebellum, 8.1 mCi, Distribution volume (DV), subject 1, bolus): 8.71
Kp ([10]; cerebellum, 8.8 mCi, Distribution volume (DV), subject 4, bolus): 5.4
Kp ([10]; cerebellum, 9.3 mCi, Distribution volume (DV), subject 3, bolus): 9.88
Kp ([10]; cingulate cortex, Median DV of high plasma nicotine group, Cingulate cortex, six volunteers): 12.6
Kp ([10]; cingulate cortex, Median DV of low plasma nicotine group, Cingulate cortex, six volunteers): 21.4
Kp ([10]; cingulate gyrus, 8.1 mCi, Distribution volume (DV), subject 1, bolus): 12.6
Kp ([10]; cingulate gyrus, 8.8 mCi, Distribution volume (DV), subject 4, bolus): 7.55
Kp ([10]; cingulate gyrus, 9.3 mCi, Distribution volume (DV), subject 3, bolus): 12.4
Kp ([10]; frontal cortex, Median DV of high plasma nicotine group, Frontal cortex, six volunteers): 9.6
Kp ([10]; frontal cortex, Median DV of low plasma nicotine group, Frontal cortex, six volunteers): 18
Kp ([10]; fusiform gyrus, Median DV of high plasma nicotine group, Fusiform gyrus, six volunteers): 9.46
Kp ([10]; fusiform gyrus, Median DV of low plasma nicotine group, Fusiform gyrus, six volunteers): 19.9
Kp ([10]; head of the caudate nucleus, 8.1 mCi, Distribution volume (DV), Caudate head, subject 1, bolus): 13.7
Kp ([10]; head of the caudate nucleus, 8.8 mCi, Distribution volume (DV), Caudate head, subject 4, bolus): 7.75
Kp ([10]; head of the caudate nucleus, 9.3 mCi, Distribution volume (DV), Caudate head, subject 3, bolus): 13.1
Kp ([10]; hippocampus, 8.8 mCi, Distribution volume (DV), subject 4, bolus): 8.32
Kp ([10]; hippocampus, 9.3 mCi, Distribution volume (DV), subject 3, bolus): 14.4
Kp ([10]; occipital cortex, Median DV of high plasma nicotine group, Occiptal cortex, six volunteers): 7.15
Kp ([10]; occipital cortex, Median DV of low plasma nicotine group, Occiptal cortex, six volunteers): 14.2
Kp ([10]; occipital lobe, 8.1 mCi, Distribution volume (DV), Occiptal lobe, subject 1, bolus): 7
Kp ([10]; occipital lobe, 8.8 mCi, Distribution volume (DV), Occiptal lobe, subject 4, bolus): 4.17
Kp ([10]; occipital lobe, 9.3 mCi, Distribution volume (DV), Occiptal lobe, subject 3, bolus): 7.15
Kp ([10]; parietal cortex, Median DV of high plasma nicotine group, Parietal cortex, six volunteers): 9.78
Kp ([10]; parietal cortex, Median DV of low plasma nicotine group, Parietal cortex, six volunteers): 17
Kp ([10]; parietal lobe, 8.1 mCi, Distribution volume (DV), subject 1, bolus): 9.78
Kp ([10]; parietal lobe, 8.8 mCi, Distribution volume (DV), subject 4, bolus): 5.17
Kp ([10]; parietal lobe, 9.3 mCi, Distribution volume (DV), subject 3, bolus): 8.71
Kp ([10]; pons, 8.1 mCi, Distribution volume (DV), subject 1, bolus): 15.1
Kp ([10]; pons, 8.8 mCi, Distribution volume (DV), subject 4, bolus): 9.23
Kp ([10]; pons, 9.3 mCi, Distribution volume (DV), subject 3, bolus): 20.4
Kp ([10]; putamen, 8.8 mCi, Distribution volume (DV), subject 4, bolus): 8.74
Kp ([10]; putamen, 9.3 mCi, Distribution volume (DV), subject 3, bolus): 15.6
Kp ([10]; temporal cortex, Median DV of high plasma nicotine group, Temporal cortex, six volunteers): 8.39
Kp ([10]; temporal cortex, Median DV of low plasma nicotine group, Temporal cortex, six volunteers): 15
extent of metabolism, arterial versus venous blood samples [11]: identical extents of metabolism

[76Br]c1ccc(C2CC3CCC2N3)cn1 (stereo not drawn) [[^76Br]BrPH, [^76Br]norchlorobromoepibatidine, reference compound]
Conclusion: safety and efficacy (α4β2* nAChRs [5]; ref Kassiou et al., 2002): [^76Br]BrPH is safe and efficacious in baboons.

[18F]c1cc(-c2cc(OC[C@@H]3CCN3)cnc2Cl)ccn1 [[^18F]NIDA522131, chloro-3-((2-(S)-azetidinyl)methoxy)-5-(2-[^18F]fluoropyridin-4-yl)pyridine]
Conclusion: safety and efficacy (α4β2* nAChRs [6]; ref Chefer et al., 2008): • [^18 F]NIDA522131 is safe and efficacious for brain imaging in monkeys.

[18F]c1ccc(OC[C@@H]2CCN2)cn1 [6-[^18F]FA, 6-[^18F]fluoro-3-(2(S)-azetidinylmethoxy)pyridine]
Conclusion: safety and efficacy (α4β2* nAChRs [6]; ref Horti et al., 2000): • 6-[^18F]FA is safe and efficacious for brain imaging in monkeys.

[18F]c1ncccc1OC[C@@H]1CCN1 [2-[^18F]FA, 2-[^18F]fluoro-3-(2(S)-azetidinylmethoxy)pyridine, reference compound]
Conclusion: peaks (α4β2* nAChRs [5]; in vivo): • In baboons 2-[^18F]FA has lower peaks than [^18F]fluoronorchloroepibatidine. In a monkey 2-[^18F]FA has lower peaks than 5-[^123I]IA.
Conclusion: safety and efficacy (α4β2* nAChRs [6]; 2 monkeys, ref Kimes et al., 2003): • 2-[^18F]FA is safe and efficacious in monkeys and humans.
Conclusion: peaks (α4β2* nAChRs [6]; a monkey, ref Dollé et al., 1999): • In baboons 2-[^18F]FA has lower peaks than [^18F]fluoronorchloroepibatidine. In a monkey 2-[^18F]FA has lower peaks than 5-[^123I]IA.
Conclusion: safety and efficacy (α4β2* nAChRs [6]; ref Chefer et al., 1999): • 2-[^18F]FA is safe and efficacious for brain imaging in monkeys.

CN1CCC[C@H]1c1cccnc1 [(−)-nicotine]
reduction in α4β2* nAChR uptake (α4β2* nAChRs [12]; frontal cortex): 32%
reduction in α4β2* nAChR uptake (α4β2* nAChRs [12]; thalamus): 52%
effect on accumulation of 5-[^123I]IA in brain (α4β2* nAChRs [3]): blocked in all brain regions
plasma nicotine level at uptake of half the α4β2* nAChRs (α4β2* nAChRs [13]): 0.87 ng/mL
